In ChEMBL document CHEMBL1126121, “Non-prostanoid thromboxane A2 receptor antagonists with a dibenzoxepin ring system. 1” (J Med Chem, 1992) one finds inhibition, Aggregation and Platelet aggregation data, which are given here for 30 compounds.

The target of assay [1] is T1, Thromboxane A2 receptor (Homo sapiens) (UniProt P21731).
T1 sequence (whole entry): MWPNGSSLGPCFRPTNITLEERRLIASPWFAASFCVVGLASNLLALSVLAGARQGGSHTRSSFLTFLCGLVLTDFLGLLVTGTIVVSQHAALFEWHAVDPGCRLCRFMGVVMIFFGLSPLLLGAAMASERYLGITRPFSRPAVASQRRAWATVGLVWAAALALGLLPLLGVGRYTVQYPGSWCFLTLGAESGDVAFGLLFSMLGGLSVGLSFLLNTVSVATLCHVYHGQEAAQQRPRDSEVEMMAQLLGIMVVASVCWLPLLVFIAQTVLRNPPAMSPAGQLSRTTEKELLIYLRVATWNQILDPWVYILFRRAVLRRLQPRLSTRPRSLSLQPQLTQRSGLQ
The assay is described as follows: Inhibitory effect against binding thromboxane A2 receptor on guinea pig platelets using [3H]U-46619 as radioligand at 1 uM concentration. The conditions noted are these: Cavia porcellus, target entry is the homologue from another species.

For assay [2], the target named is T1, Thromboxane A2 receptor (Homo sapiens). The assay is described as follows: Binding affinity for thromboxane A2 receptor by measuring ability to displace [3H]U-46619 from guinea pig platelets at 1 uM. The conditions noted are these: Cavia porcellus, target entry is the homologue from another species.
Assay [3] has the same target. The assay is described as follows: Binding affinity for thromboxane A2 receptor by measuring its ability to displace [3H]U-46619 from guinea pig platelets at 0.1 uM. The note with it: Cavia porcellus, target entry is the homologue from another species.
Assay [4] relates to Thromboxane-A synthase (Bos taurus). The assay is described as follows: Inhibitory effect against thromboxane A2 synthase from bovine platelets at 10 uM concentration.
For assay [5], the target named is T2, Thromboxane-A synthase (Homo sapiens) (UniProt P24557).
T2 sequence (whole entry): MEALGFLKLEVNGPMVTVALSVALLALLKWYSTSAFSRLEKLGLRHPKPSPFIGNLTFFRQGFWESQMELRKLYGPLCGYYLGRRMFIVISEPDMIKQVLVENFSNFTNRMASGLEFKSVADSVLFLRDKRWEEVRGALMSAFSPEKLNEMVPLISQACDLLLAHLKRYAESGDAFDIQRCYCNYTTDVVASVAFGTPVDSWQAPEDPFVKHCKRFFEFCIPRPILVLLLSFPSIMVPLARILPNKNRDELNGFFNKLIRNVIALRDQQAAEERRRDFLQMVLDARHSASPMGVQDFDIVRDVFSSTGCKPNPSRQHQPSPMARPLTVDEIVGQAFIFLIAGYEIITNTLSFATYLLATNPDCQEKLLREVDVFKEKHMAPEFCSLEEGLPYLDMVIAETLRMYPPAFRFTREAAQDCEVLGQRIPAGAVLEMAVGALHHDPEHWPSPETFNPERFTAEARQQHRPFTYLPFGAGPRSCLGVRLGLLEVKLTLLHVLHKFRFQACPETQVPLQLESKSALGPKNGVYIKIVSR
The assay is described as follows: Inhibitory activity against thromboxane A2 synthase obtained from bovine platelet microsomes at 10 uM. The note with it: Bos taurus, target entry is the homologue from another species.

Assay [6] has as its system Cavia porcellus. The assay is described as follows: Compound was tested ex vivo for it''s inhibition of U-46619 induced platelet aggregation in the guinea pig after 2 hr of administration at dose 10 mg/kg. It is filed as functional.
In assay [7] the test system is Cavia porcellus. The assay is described as follows: Inhibitory effect of the compounds on U-46619-induced platelet aggregation ex vivo in guinea pig at the dose of 10 mg/kg 2 hr after oral administration. It counts as functional.

As a reminder, the inhibition is the drop in the measured response relative to a control, in per cent. For the compound `COc1ccccc1C(=O)NCCSC1c2ccccc2COc2ccc(C(=O)O)cc21` (stereo not given), the inhibition in assay [1] is 97%; in assay [2] it was 97%; in assay [3], 86%.

On to `O=C(O)c1ccc2c(c1)C(SCCNS(=O)(=O)c1ccccc1)c1ccccc1C=C2` (stereo not given), for which the inhibition in assay [4] is 74%; in assay [1], 97%; in assay [2] it was 97%; in assay [3] it was 67%; in assay [5], 74%.

Take `O=C(O)c1ccc2c(c1)C(SCCNS(=O)(=O)c1ccccc1)c1ccccc1CC2` (stereo not given): the inhibition came to 68% in assay [4]; 95% in assay [1]; 95% in assay [2]; 71% in assay [3]; 68% in assay [5].

Take `O=C(O)c1ccc2c(c1)C(SCCNS(=O)(=O)c1ccc(F)cc1)c1ccccc1CO2` (stereo not given): the inhibition is 33% in assay [4]; 93% in assay [1]; 93% in assay [2]; 61% in assay [3]; 33% in assay [5].

Turning to `O=C(NCCSC1c2ccccc2COc2ccc(C(=O)O)cc21)NCc1ccccc1` (stereo not given), the inhibition in assay [4] stood at 41%; in assay [1], 87%; in assay [2], 87%; in assay [3] it was 47%; in assay [5], 41%.

With `O=C(O)c1ccc2c(c1)C(SCCNC(=O)C1CCCCC1)c1ccccc1CO2` (stereo not given), the inhibition in assay [4] was determined as 19%; in assay [1] it was 66%; in assay [2], 66%; in assay [3] it was 20%; in assay [5], 19%.

Take `O=C(O)c1ccc2c(c1)C(SCCNS(=O)(=O)c1ccc(C(F)(F)F)cc1)c1ccccc1CO2` (stereo not given): the inhibition in assay [4] is -9%; in assay [1], 92%; in assay [2] it was 92%; in assay [3], 70%; in assay [5], -9%.

`Cc1ccsc1C(=O)NCCSC1c2ccccc2COc2ccc(C(=O)O)cc21` (stereo not given): the inhibition amounted to 79% in assay [4]; 94% in assay [1]; 94% in assay [2]; 81% in assay [3]; 79% in assay [5].

Turning to `O=C(O)c1cccc(C(SCCNS(=O)(=O)c2ccccc2)c2ccccc2)c1` (stereo not given), the inhibition in assay [4] amounted to 19%; in assay [1], 85%; in assay [2] it was 85%; in assay [3] it was 41%; in assay [5] it was 19%.

`COc1ccc(OC)c(S(=O)(=O)NCCSC2c3ccccc3COc3ccc(C(=O)O)cc32)c1` (stereo not given): the inhibition in assay [4] amounted to 62%; in assay [1], 92%; in assay [2] it was 92%; in assay [3], 66%; in assay [5] it was 62%.

`Cc1ccc(S(=O)(=O)NCCSC2c3ccccc3COc3ccc(C(=O)O)cc32)cc1` (stereo not given): the inhibition in assay [4] turned out to be 77%; in assay [1], 93%; in assay [2] it was 93%; in assay [3], 76%; in assay [5] it was 77%.

Turning to `CCCCCC(=O)NCCSC1c2ccccc2COc2ccc(C(=O)O)cc21` (stereo not given), the inhibition in assay [4] was found to be 4%; in assay [1] it was 88%; in assay [2], 88%; in assay [3], 51%; in assay [5], 4%.

Regarding `O=C(O)c1ccc2c(c1)C(SCCNC(=O)c1ccccc1O)c1ccccc1CO2` (stereo not given), the Aggregation in assay [6] was 64.5%. Further, the inhibition in assay [4] stood at 53%; in assay [1], 99%; in assay [2] it was 99%; in assay [3], 90%; in assay [5], 53%. Besides, in assay [7], the Platelet aggregation turned out to be 64.5%.

For the compound `O=C(O)c1ccc2c(c1)C(SCCNS(=O)(=O)c1cccnc1)c1ccccc1CO2` (stereo not given), the inhibition came to 93% in assay [1], 93% in assay [2] and 67% in assay [3].

Turning to `O=C(O)Cc1ccc2c(c1)C(SCCNS(=O)(=O)c1ccccc1)c1ccccc1CO2` (stereo not given), the inhibition turned out to be 84% in assay [2], 30% in assay [3] and 13% in assay [5].

With `O=C(NCCSC1c2ccccc2COc2ccc(C(=O)O)cc21)Nc1ccccc1` (stereo not given), the inhibition is 58% in assay [4]; 98% in assay [1]; 98% in assay [2]; 67% in assay [3]; 58% in assay [5].

Turning to `O=C(O)c1ccc2c(c1)C(SCCNS(=O)(=O)c1cccc3cccnc13)c1ccccc1CO2` (stereo not given), the inhibition in assay [4] came to 63%; in assay [1] it was 90%; in assay [2] it was 90%; in assay [3], 44%; in assay [5], 63%.

Turning to `COc1ccc(S(=O)(=O)NCCSC2c3ccccc3COc3ccc(C(=O)O)cc32)cc1` (stereo not given), the inhibition was determined as 75% in assay [4]; 93% in assay [1]; 93% in assay [2]; 83% in assay [3]; 75% in assay [5].

With `COc1cc(C(=O)NCCSC2c3ccccc3COc3ccc(C(=O)O)cc32)cc(OC)c1OC` (stereo not given), the inhibition came out at 92% in assay [4]; 87% in assay [1]; 87% in assay [2]; 50% in assay [3]; 92% in assay [5].

Consider `O=C(O)c1ccc2c(c1)C(SCCNS(=O)(=O)c1cccc([N+](=O)[O-])c1)c1ccccc1CO2` (stereo not given), for which the inhibition in assay [4] amounted to 54%; in assay [1], 93%; in assay [2] it was 93%; in assay [3] it was 83%; in assay [5] it was 54%.

On to `O=C(O)c1ccc2c(c1)C(SCCNS(=O)(=O)c1ccccc1)c1ccccc1OC2` (stereo not given), for which the inhibition worked out at 53% in assay [4]; 64% in assay [1]; 64% in assay [2]; 21% in assay [3]; 53% in assay [5].

Regarding `Cc1ccc2c(c1)C(SCCNS(=O)(=O)c1ccccc1)c1ccccc1CO2` (stereo not given), the inhibition in assay [4] was -10%; in assay [1] it was 27%; in assay [2], 27%; in assay [3], 1%; in assay [5], -10%.

For `O=C(O)c1ccc2c(c1)C(SCCNS(=O)(=O)c1ccccc1[N+](=O)[O-])c1ccccc1CO2` (stereo not given), the inhibition in assay [4] was 79%; in assay [1] it was 99%; in assay [2], 99%; in assay [3] it was 72%; in assay [5], 72%.

In the case of `COc1ccc(S(=O)(=O)NCCSC2c3ccccc3COc3ccc(C(=O)O)cc32)cc1OC` (stereo not given), the inhibition is 70% in assay [4]; 91% in assay [1]; 91% in assay [2]; 49% in assay [3]; 70% in assay [5].

For the compound `O=C(O)c1ccc2c(c1)OCc1ccccc1C2SCCNS(=O)(=O)c1ccccc1` (stereo not given), the inhibition in assay [4] is 96%; in assay [1], 36%; in assay [2], 36%; in assay [3], -3%; in assay [5] it was 96%.

On to `O=C(O)c1ccc2c(c1)C(SCCNS(=O)(=O)c1ccc(Cl)cc1)c1ccccc1CO2` (stereo not given), for which the inhibition was determined as 79% in assay [4]; 94% in assay [1]; 94% in assay [2]; 64% in assay [3]; 79% in assay [5].

For `O=C(O)c1ccc2c(c1)C(SCCNS(=O)(=O)c1ccc([N+](=O)[O-])cc1)c1ccccc1CO2` (stereo not given), the inhibition in assay [4] was 41%; in assay [1] it was 90%; in assay [2] it was 90%; in assay [3] it was 58%; in assay [5], 41%.

For `COc1cccc(OC)c1C(=O)NCCSC1c2ccccc2COc2ccc(C(=O)O)cc21` (stereo not given), the values for the inhibition in assay [1], in assay [2] and in assay [3] were 72%, 72% and 20%, respectively.

In the case of `COc1ccc(C(=O)NCCSC2c3ccccc3COc3ccc(C(=O)O)cc32)c(OC)c1OC` (stereo not given), the values for the inhibition in assay [1], in assay [2] and in assay [3] were 97%, 97% and 82%, respectively.

On to `CN(CCSC1c2ccccc2COc2ccc(C(=O)O)cc21)S(=O)(=O)c1ccccc1` (stereo not given), for which the results for the inhibition in assay [1], in assay [2] and in assay [3] were 92%, 92% and 73%, respectively.
